Experimental data taken from paper PMC6747129 (International Journal of Molecular Sciences, 2019).

Tests used:
CYP3A4 [1] = biological target: T1, CYP3A4 (Homo sapiens, UniProt P08684)
CYP3A4 [2] = biological target: T1, CYP3A4; assay: in vitro; details: pH 7.4
[3] = system: microsomal and recombinant CYP3A4; details: reversible and mechanism-based inhibition of CYP3A4; cited from earlier work
CYP3A4 [4] = biological target: T1, CYP3A4; assay: biochemical

T1 sequence (P08684 whole entry): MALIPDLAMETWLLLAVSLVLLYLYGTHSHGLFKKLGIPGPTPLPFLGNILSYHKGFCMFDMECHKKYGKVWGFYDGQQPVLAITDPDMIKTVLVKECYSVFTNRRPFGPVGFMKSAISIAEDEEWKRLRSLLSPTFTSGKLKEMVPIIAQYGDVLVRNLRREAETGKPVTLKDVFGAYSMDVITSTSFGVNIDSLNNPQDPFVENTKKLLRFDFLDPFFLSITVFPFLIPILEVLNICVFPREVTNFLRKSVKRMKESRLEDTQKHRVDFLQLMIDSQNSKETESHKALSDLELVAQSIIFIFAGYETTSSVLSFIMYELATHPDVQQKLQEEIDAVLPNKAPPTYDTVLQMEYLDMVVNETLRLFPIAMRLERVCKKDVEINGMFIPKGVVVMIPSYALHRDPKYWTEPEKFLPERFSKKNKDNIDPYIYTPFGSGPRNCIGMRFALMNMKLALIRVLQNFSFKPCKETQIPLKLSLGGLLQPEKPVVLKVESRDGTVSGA

| SMILES | share of the total absorbance decrease (Soret band) due to occupation of the high affinity site (CYP3A4 [1]; DHB titration, two-site fit) | Kd (CYP3A4 [2]) [µM] | IC50 [3] [µM] | Kd (CYP3A4 [4]) [µM] | n, Hill coefficient (CYP3A4 [1]; sigmoidal fit of titration curve, ligand-free CYP3A4) |
| --- | --- | --- | --- | --- | --- |
| C/C(=C\COc1c2ccoc2cc2oc(=O)ccc12)CCC(O)C(C)(C)O (stereo not shown) [DHB, 6′,7′-dihydroxybergamottin] | ~ 17% | 10.3 ± 1.4 | 2 to 23 | 0.22 ± 0.03 | – |
| CC(C)=CCC/C(C)=C/COc1c2ccoc2cc2oc(=O)ccc12 [bergamottin] | – | – | 2 to 23 | 3 ± 0.3 | 1.8 |
